Measured values as given in patent publication US9981972B2, “N-hydroxy bicyclic hydantoin carbamates as tools for identification of serine hydrolase targets” (ABIDE THERAPEUTICS, INC., priority 2014, dated 2018).
Entries after “also recorded” stand apart in the source; their conditions may differ.

How the values were obtained:
[1] = tested on: SHs in PC3 cell proteomes; assay: Probe-versus-probe ABPP-SILAC, PC3 proteomes; assay type: biochemical, human; conditions: Compound 39 5 μM, 1 h versus FP-biotin 2.5 μM
Procedure: Isotopically heavy- and light-labeled PC3 cells were treated with Compound 37 (1 μM) or DMSO for 4 h, respectively, lysed, and then treated Compound 39 (5 μM, 1 h). […] Among the handful of additional SH targets of Compound 37 were ABHD6 and PLA2G7, which were expected based on our ABPP-SILAC studies with FP-biotin (see FIG. 9), and protein-palmitoyl thioesterase 1 (PPT1), which was inhibited by more than 90%. […] Accordingly, PPT1 was not detected in our previous ABPP-SILAC studies with FP-biotin (see FIG. 9). The selective enrichment of PPT1 by Compound 39 was confirmed by performing a probe-versus-probe ABPP-SILAC study, where heavy and light PC3 proteomes were treated with FP-biotin (2.5 μM, 1 h) and Compound 39 (5 μM, 1 h), respectively. PPT1, along with two additional SHs LIPA and DDHD2, were preferentially enriched by Compound 39 over FP-biotin, while most of the other SHs were more strongly enriched by FP-biotin (see FIG. 13). A handful of SHs corresponding mostly to enzymes that were identified in our ABPP-SILAC studies as targets of Compound 37 (see FIGS. 9 and 12), were equivalently enriched by Compound 39 and FP-biotin (see FIG. 13).

[2] = target: T1, PPT1 (wild type, S115A) (Homo sapiens, UniProt P50897); assay: Labeling of recombinant PPT1 by probes (gel-based ABPP, isoTOP-ABPP); assay type: biochemical; conditions: transfected HEK293T cell lysates, gel-based ABPP
T1 construct: expressed in transfected cells; host or cells: HEK293T
Procedure: (§1) HEK293T cells were seeded at 2×10^5 per well on 6 well plates and grown for 48 h. They were then transfected with mABHD3 (pCMV-Sport6), hABHD4 (pcDNA3.1/myc-his), hPPT1 (pCMV6-XL5), or hPPT1 S115A (pCMV6-XL5), by incubating 0.5 μg of DNA with 3 μL of PEI MAX (1 mg/mL, Polysciences, Inc) in serum-free DMEM for 30 min, then adding them to cells. After 48 h cells were either treated with compound in situ, as described above, or harvested for in vitro studies. The […] PPT1 mutation was introduced using QuikChange II Site Directed Mutagenesis Kit (Agilent) with the following primers: […]
(§2) Whole cell lysates (500 μL, 1.5 mg/mL) of hPPT1 transfected HEK239Ts were processed for MS analysis using the previously described isoTOP-ABPP protocol (Weerapana et al., Nature 468, 790-795, 2010). In brief, for analysis of Compound 39-modified peptides, proteomes were split into two fractions, to which Compound 39 (5 μM, 60 min) or DMSO were added. […] MS1 peaks for probe-labeled quantified peptides were extracted with Xcalibur Qual Browser 2.2 (Thermo Scientific). […]
(§3) HEK293T cells were transfected with wild type and an S115A mutant of PPT1, lysed, and treated with Compound 39 followed by CuAAC conjugation to an azide-Rh tag, PNGaseF treatment, and analysis by SDS-PAGE. […] S115 was identified as the site of Compound 39 labeling on PPT1 using a quantitative MS method termed isoTOP-ABPP. […]

[3] = tested on: PPT1 (wild type, S115A); assay: as above; assay type: biochemical, human; conditions: transfected HEK293T lysates, CuAAC to azide-Rh, PNGaseF
Procedure: as §1, §2, §3

[4] = target: T2, ABHD4 (Homo sapiens, UniProt Q8TB40); assay: Gel-based competitive ABPP, recombinant enzyme in transfected HEK293T cell lysates; assay type: biochemical; design: myc-his; expressed in transfected cells; host or cells: HEK293T, transient transfection, pcDNA3.1/myc-his; lysate used in vitro; conditions: competitive ABPP with FP-Rh, 30 min 37° C.
T2 sequence (Q8TB40 1-342): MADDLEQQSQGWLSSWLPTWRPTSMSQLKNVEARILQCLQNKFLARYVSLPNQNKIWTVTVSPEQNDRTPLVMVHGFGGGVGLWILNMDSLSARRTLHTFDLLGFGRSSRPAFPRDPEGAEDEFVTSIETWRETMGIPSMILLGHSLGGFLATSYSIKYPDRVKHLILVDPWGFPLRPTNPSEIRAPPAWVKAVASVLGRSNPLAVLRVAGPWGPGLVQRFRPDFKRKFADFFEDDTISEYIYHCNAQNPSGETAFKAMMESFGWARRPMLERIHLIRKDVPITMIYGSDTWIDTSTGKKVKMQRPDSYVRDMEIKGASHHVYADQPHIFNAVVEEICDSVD
Procedure: as §1
Human ABHD3 and ABHD4 were recombinantly expressed by transient transfection in HEK293T cells, and the cell lysates were combined to provide a convenient assay for monitor inhibition of both enzymes by gel-based ABPP (see FIG. 8A). […]

T1 sequence (P50897 28-306 S115A): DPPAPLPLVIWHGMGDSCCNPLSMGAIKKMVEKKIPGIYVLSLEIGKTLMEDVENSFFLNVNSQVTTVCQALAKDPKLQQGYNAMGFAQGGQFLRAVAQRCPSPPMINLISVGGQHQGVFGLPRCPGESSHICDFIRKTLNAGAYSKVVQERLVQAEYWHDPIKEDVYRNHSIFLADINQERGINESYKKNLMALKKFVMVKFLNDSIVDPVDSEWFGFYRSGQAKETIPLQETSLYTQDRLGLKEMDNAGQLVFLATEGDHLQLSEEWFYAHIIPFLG

**Q.** Which “SHs preferentially enriched by Compound 39 over FP-biotin” value [1] does the source give for `C#CCOc1ccc(N2CCN(C(=O)ON3C(=O)C4CN(Cc5ccc(Oc6ccccc6)cc5)CCN4C3=O)CC2)cc1` (stereo not shown) [Compound 39, 1,3-dioxo-7-(4-phenoxybenzyl)hexahydroimidazo[1,5-a]pyrazin-2(3H)-yl 4-(4-(prop-2-yn-1-yloxy)phenyl)piperazine-1-carboxylate] here?
**A.** PPT1 and LIPA and DDHD2

**Q.** And the “probe reactivity with recombinant hPPT1” value [2]?
**A.** reacts; also recorded: reacted with PPT1

**Q.** And the “labeling of wild type PPT1 versus S115A mutant” value [3]?
**A.** labels recombinant wild type PPT1, but not the catalytic serine mutant (S115A); also recorded: strong labeling of wild-type PPT1, but not the S115A mutant

**Q.** And the “inhibition of ABHD4 in transfected HEK293T cell proteome” value [4]?
**A.** inhibited ABHD4 in transfected HEK293T cell proteome in a concentration-dependent manner
